Assay results taken from US9708314B2, “Heterocyclic amide compound” (NISSAN CHEMICAL INDUSTRIES, LTD., priority 2013, dated 2017).

Experiments:
Type in all cases: in vivo
Scirpus juncoides = assay: Test Example 2: herbicidal activity, application during weed generation in submerged conditions; details: Eighteenth Table; application herbicide amount 320 g/ha
In short: (§1)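 Scored three weeks post-application on a 0–5 scale (5: ≥90% herbicidal ratio, almost withered; 0: ≤5%). Plants raised from mixed-sown seed in submerged alluvial soil (4 cm water), 25–30 °C greenhouse; water-diluted emulsion applied onto water surface at one- to two-leaf stage, dose in g/ha.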

Monochoria vaginalis = assay: as above; details: Eighteenth Table; application herbicide amount 320 g/ha
In short: as §1

[1] = system: Echinochloa oryzacola Vasing.; assay: as above; details: Eighteenth Table; application herbicide amount 320 g/ha
In short: as §1

Brassica campestris L. = assay: Test Example 4: effect on crop by application to foliage (diluvial soil, plastic box); details: Application herbicide amount 320 g/ha; foliage application
In short: (§2)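 Seeds sown in sterilized diluvial soil, covered ~1.5 cm, grown 14 days in greenhouse at 25° C. to 30° C. Emulsion formulation diluted in water to set rate (g/ha) and sprayed onto stems and leaves. Effect scored visually 3 weeks later on 0–5 scale (5 = ≥90% herbicidal ratio, 0 = ≤5%).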

Zea mays = assay: as above; details: Application herbicide amount 320 g/ha; foliage application
In short: as §2

Triticum aestivum = assay: as above; details: Application herbicide amount 320 g/ha; foliage application
In short: as §2

[2] = system: Beta vulgaris ssp. vulgaris; assay: as above; details: Application herbicide amount 320 g/ha; foliage application
In short: as §2

[3] = system: transplanted Oryza sativa; assay: Test Example 1: effect on crop, application before weed generation in submerged conditions; details: Application herbicide amount 320 g/ha; Seventeenth Table
In short: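 Pre-emergence water-surface application under 4 cm flooding, same day as sowing, with rice transplanted at 2.5 leaf stage. Dose given as g/ha. Plants grown at 25° C. to 30° C. and rated three weeks later on a 0 (≤5%) to 5 (≥90%) herbicidal-ratio scale.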

Compound	B (Scirpus juncoides) herbicidal ratio grade (Scirpus juncoides)	C (Monochoria vaginalis) herbicidal ratio grade (Monochoria vaginalis)	A (Echinochloa oryzicola Vasing.) herbicidal ratio grade [1]	g (Brassica campestris L.) effect on crop grade (Brassica campestris L.)	c (Zea mays) effect on crop grade (Zea mays)	e (Triticum aestivum) effect on crop grade (Triticum aestivum)	f (Beta vulgaris ssp. vulgaris) effect on crop grade [2]	a: transplanted Oryza sativa (effect on crop grade) [3]
CN(c1nnc2c(C(=O)Nc3nnco3)ccc(C(F)(F)F)n12)C1CCCCC1 [1-123]	2 (Herbicidal ratio of 20% or more and less than 40%)	3 (Herbicidal ratio of 40% or more and less than 70%)	3 (Herbicidal ratio of 40% or more and less than 70%)	3 (Herbicidal ratio of 40% or more and less than 70%)	0 (Herbicidal ratio of 5% or less (almost no effect))	0 (Herbicidal ratio of 5% or less (almost no effect))	4 (Herbicidal ratio of 70% or more and less than 90%)	1 (Herbicidal ratio of 5% or more and less than 20%)
COCCN(C)c1nnc2c(C(=O)Nc3nnc(C)o3)ccc(C(F)(F)F)n12 [1-129]	4 (Herbicidal ratio of 70% or more and less than 90%)	3 (Herbicidal ratio of 40% or more and less than 70%)	3 (Herbicidal ratio of 40% or more and less than 70%)	3 (Herbicidal ratio of 40% or more and less than 70%)	2 (Herbicidal ratio of 20% or more and less than 40%)	1 (Herbicidal ratio of 5% or more and less than 20%)	5 (Herbicidal ratio of 90% or more (almost completely withered))	1 (Herbicidal ratio of 5% or more and less than 20%)
CCN(CC)c1nnc2c(C(=O)Nc3nnc(C)o3)ccc(C(F)(F)F)n12 [1-135]	2 (Herbicidal ratio of 20% or more and less than 40%)	3 (Herbicidal ratio of 40% or more and less than 70%)	2 (Herbicidal ratio of 20% or more and less than 40%)	0 (Herbicidal ratio of 5% or less (almost no effect))	0 (Herbicidal ratio of 5% or less (almost no effect))	0 (Herbicidal ratio of 5% or less (almost no effect))	4 (Herbicidal ratio of 70% or more and less than 90%)	1 (Herbicidal ratio of 5% or more and less than 20%)
CCN(CC)c1nnc2c(C(=O)Nc3nnco3)ccc(C(F)(F)F)n12 [1-138]	3 (Herbicidal ratio of 40% or more and less than 70%)	3 (Herbicidal ratio of 40% or more and less than 70%)	3 (Herbicidal ratio of 40% or more and less than 70%)	4 (Herbicidal ratio of 70% or more and less than 90%)	0 (Herbicidal ratio of 5% or less (almost no effect))	1 (Herbicidal ratio of 5% or more and less than 20%)	5 (Herbicidal ratio of 90% or more (almost completely withered))	2 (Herbicidal ratio of 20% or more and less than 40%)
Cc1nnc(NC(=O)c2ccc(C(F)(F)F)n3c(SCC(F)(F)F)nnc23)o1 [1-124]	3 (Herbicidal ratio of 40% or more and less than 70%)	1 (Herbicidal ratio of 5% or more and less than 20%)	3 (Herbicidal ratio of 40% or more and less than 70%)	0 (Herbicidal ratio of 5% or less (almost no effect))	1 (Herbicidal ratio of 5% or more and less than 20%)	0 (Herbicidal ratio of 5% or less (almost no effect))	3 (Herbicidal ratio of 40% or more and less than 70%)	0 (Herbicidal ratio of 5% or less (almost no effect))
Cc1nnc(NC(=O)c2ccc(C(F)(F)F)n3c(SCC4OCCO4)nnc23)o1 [1-126]	3 (Herbicidal ratio of 40% or more and less than 70%)	3 (Herbicidal ratio of 40% or more and less than 70%)	1 (Herbicidal ratio of 5% or more and less than 20%)	3 (Herbicidal ratio of 40% or more and less than 70%)	1 (Herbicidal ratio of 5% or more and less than 20%)	0 (Herbicidal ratio of 5% or less (almost no effect))	5 (Herbicidal ratio of 90% or more (almost completely withered))	0 (Herbicidal ratio of 5% or less (almost no effect))
CC(C)N(C)c1nnc2c(C(=O)Nc3nnco3)ccc(C(F)(F)F)n12 [1-122]	3 (Herbicidal ratio of 40% or more and less than 70%)	3 (Herbicidal ratio of 40% or more and less than 70%)	4 (Herbicidal ratio of 70% or more and less than 90%)	5 (Herbicidal ratio of 90% or more (almost completely withered))	2 (Herbicidal ratio of 20% or more and less than 40%)	2 (Herbicidal ratio of 20% or more and less than 40%)	5 (Herbicidal ratio of 90% or more (almost completely withered))	3 (Herbicidal ratio of 40% or more and less than 70%)
Cc1nnc(NC(=O)c2ccc(C(F)(F)F)n3c(N(C)C(C)C)nnc23)o1 [1-132]	4 (Herbicidal ratio of 70% or more and less than 90%)	4 (Herbicidal ratio of 70% or more and less than 90%)	4 (Herbicidal ratio of 70% or more and less than 90%)	4 (Herbicidal ratio of 70% or more and less than 90%)	2 (Herbicidal ratio of 20% or more and less than 40%)	1 (Herbicidal ratio of 5% or more and less than 20%)	5 (Herbicidal ratio of 90% or more (almost completely withered))	2 (Herbicidal ratio of 20% or more and less than 40%)
